Laboratory results taken from patent publication US11331369B2, “Endoparasitic depsipeptides” (Zoetis Services LLC, priority 2017, dated 2022).

Tests used:
Format in all cases: cell-based
[1] = system: microfilariae of Dirofilaria immitis; assay: Dirofilaria immitis, Microfilaria (DiMF) In vitro Assay; settings: 72 h, read-out: DiMF Minimum Effective Dose (MED), approximately 72 hours incubation, microfilariae assessed for survival or paralysis
[2] = system: third stage larvae of Haemonchus contortus; assay: Haemonchus contortus L3 (HcL3) Assay; settings: 96 h, read-out: HcL3 Minimum Effective Dose (MED)
[3] = system: 4th stage larvae (L4) of Dirofilaria immitis; assay: Dirofilaria immitis, L4 Stage (DiL4) In Vitro Assay; settings: Dirofilaria immitis, 72 h, read-out: DiL4 Minimum Effective Dose (MED), approximately 72 hours incubation; L4 larvae assessed for survival or paralysis

Structure (SMILES)	minimal effective concentration [1] [µM]	minimal effective concentration [2] [µM]	minimal effective concentration [3] [µM]
Cc1ccc(C#N)n1Cc1ccc(C[C@H]2OC(=O)[C@H](CC(C)C)N(C)C(=O)[C@@H](C)OC(=O)[C@H](CC(C)C)N(C)C(=O)[C@@H](Cc3ccc(Cn4c(C)ccc4C#N)cc3)OC(=O)[C@H](CC(C)C)N(C)C(=O)[C@@H](C)OC(=O)[C@H](CC(C)C)N(C)C2=O)cc1 [Example 9-48, 1,1′-(((((2R,5S,8R,11 S,14R,17S,20R,23S)-5,11,17,23-tetraisobutyl-4,8,10,16,20,22-hexamethyl-3,6,9,12,15,18,21,24-octaoxo-1,7,13,19-tetraoxa-4,10,16,22-tetraazacyclotetracosane-2,14-diyl)bis(methylene))bis(4,1-phenylene))bis(methylene))bis(5-methyl-1H-pyrrole-2-carbonitrile)]	0.001 to 0.01	≤ 1	≤ 0.0001
CC(C)C[C@H]1C(=O)O[C@H](Cc2ccc(Cn3cc(Br)cn3)cc2)C(=O)N(C)[C@@H](CC(C)C)C(=O)O[C@H](C)C(=O)N(C)[C@@H](CC(C)C)C(=O)O[C@H](Cc2ccccc2)C(=O)N(C)[C@@H](CC(C)C)C(=O)O[C@H](C)C(=O)N1C [Example 2-22, (3S,6R,9S,12R,15S,18R,21S,24R)-6-benzyl-18-(4-((4-bromo-1H-pyrazol-1-yl)methyl)benzyl)-3,9,15,21-tetraisobutyl-4,10,12,16,22,24-hexamethyl-1,7,13,19-tetraoxa-4,10,16,22-tetraazacyclotetracosan-2,5,8,11,14,17,20,23-octaone]	0.001 to 0.01	1 to 10	0.0001 to 0.001
Cc1cnn(Cc2ccc(C[C@H]3OC(=O)[C@H](CC(C)C)N(C)C(=O)[C@@H](C)OC(=O)[C@H](CC(C)C)N(C)C(=O)[C@@H](Cc4ccc(Cn5cc(I)cn5)cc4)OC(=O)[C@H](CC(C)C)N(C)C(=O)[C@@H](C)OC(=O)[C@H](CC(C)C)N(C)C3=O)cc2)c1 [Example 1a-20, (3S,6R,9S,12R,15S,18R,21S,24R)-6-(4-((4-iodo-1H-pyrazol-1-yl)methyl)benzyl)-3,9,15,21-tetraisobutyl-4,10,12,16,22,24-hexamethyl-18-(4-((4-methyl-1H-pyrazol-1-yl)methyl)benzyl)-1,7,13,19-tetraoxa-4,10,16,22-tetraazacyclotetracosan-2,5,8,11,14,17,20,23-octaone]	0.001 to 0.01	1 to 10	0.0001 to 0.001
CC(C)Cc1ncnn1Cc1ccc(C[C@H]2OC(=O)[C@H](CC(C)C)N(C)C(=O)[C@@H](C)OC(=O)[C@H](CC(C)C)N(C)C(=O)[C@@H](Cc3ccc(Cn4ncnc4CC(C)C)cc3)OC(=O)[C@H](CC(C)C)N(C)C(=O)[C@@H](C)OC(=O)[C@H](CC(C)C)N(C)C2=O)cc1 [Example 9-53, (3S,6R,9S,12R,15S,18R,21S,24R)-3,9,15,21-tetraisobutyl-6,18-bis(4-((5-isobutyl-1H-1,2,4-triazol-1-yl)methyl)benzyl)-4,10,12,16,22,24-hexamethyl-1,7,13,19-tetraoxa-4,10,16,22-tetraazacyclotetracosan-2,5,8,11,14,17,20,23-octaone]	0.001 to 0.01	1 to 10	0.001 to 0.01
CC(C)C[C@H]1C(=O)O[C@H](Cc2ccc(Cn3cc(I)cn3)cc2)C(=O)N(C)[C@@H](CC(C)C)C(=O)O[C@H](C)C(=O)N(C)[C@@H](CC(C)C)C(=O)O[C@H](Cc2ccc(Cn3cc(I)cn3)cc2)C(=O)N(C)[C@@H](CC(C)C)C(=O)O[C@H](C)C(=O)N1C [Example 1b-46, (3S,6R,9S,12R,15S,18R,21S,24R)-6,18-bis(4-((4-iodo-1H-pyrazol-1-yl)methyl)benzyl)-3,9,15,21-tetraisobutyl-4,10,12,16,22,24-hexamethyl-1,7,13,19-tetraoxa-4,10,16,22-tetraazacyclotetracosan-2,5,8,11,14,17,20,23-octaone]	0.001 to 0.01	1 to 10	0.0001 to 0.001
CC(C)C[C@H]1C(=O)O[C@H](Cc2ccc(Cn3cc(F)cn3)cc2)C(=O)N(C)[C@@H](CC(C)C)C(=O)O[C@H](C)C(=O)N(C)[C@@H](CC(C)C)C(=O)O[C@H](Cc2ccccc2)C(=O)N(C)[C@@H](CC(C)C)C(=O)O[C@H](C)C(=O)N1C [Example 2-28, (3S,6R,9S,12R,15S,18R,21S,24R)-6-benzyl-18-(4-((4-fluoro-1H-pyrazol-1-yl)methyl)benzyl)-3,9,15,21-tetraisobutyl-4,10,12,16,22,24-hexamethyl-1,7,13,19-tetraoxa-4,10,16,22-tetraazacyclotetracosan-2,5,8,11,14,17,20,23-octaone]	0.001 to 0.01	1 to 10	0.0001 to 0.001
COCCOc1cnn(Cc2ccc(C[C@H]3OC(=O)[C@H](CC(C)C)N(C)C(=O)[C@@H](C)OC(=O)[C@H](CC(C)C)N(C)C(=O)[C@@H](Cc4ccc(Cn5cc(OCCOC)cn5)cc4)OC(=O)[C@H](CC(C)C)N(C)C(=O)[C@@H](C)OC(=O)[C@H](CC(C)C)N(C)C3=O)cc2)c1 [Example 1b-203, (3S,6R,9S,12R,15S,18R,21S,24R)-3,9,15,21-tetraisobutyl-6,18-bis[[4-[[4-(2-methoxyethoxy)pyrazol-1-yl]methyl]phenyl]methyl]-4,10,12,16,22,24-hexamethyl-1,7,13,19-tetraoxa-4,10,16,22-tetrazacyclotetracosane-2,5,8,11,14,17,20,23-octaone]	0.001 to 0.01	10 to 100	0.001 to 0.01
CC(C)C[C@H]1C(=O)O[C@H](Cc2ccc(Cn3ccnc3Br)cc2)C(=O)N(C)[C@@H](CC(C)C)C(=O)O[C@H](C)C(=O)N(C)[C@@H](CC(C)C)C(=O)O[C@H](Cc2ccccc2)C(=O)N(C)[C@@H](CC(C)C)C(=O)O[C@H](C)C(=O)N1C [Example 8-3, (3S,6R,9S,12R,15S,18R,21S,24R)-6-benzyl-18-[[4-[(2-bromoimidazol-1-yl)methyl]phenyl]methyl]-3,9,15,21-tetraisobutyl-4,10,12,16,22,24-hexamethyl-1,7,13,19-tetraoxa-4,10,16,22-tetrazacyclotetracosane-2,5,8,11,14,17,20,23-octaone]	0.001 to 0.01	1 to 10	0.0001 to 0.001
CC(C)C[C@H]1C(=O)O[C@H](Cc2ccc(Cn3nccc3C3CCC3)cc2)C(=O)N(C)[C@@H](CC(C)C)C(=O)O[C@H](C)C(=O)N(C)[C@@H](CC(C)C)C(=O)O[C@H](Cc2ccc(Cn3nccc3C3CCC3)cc2)C(=O)N(C)[C@@H](CC(C)C)C(=O)O[C@H](C)C(=O)N1C [Example 1b-129, (3S,6R,9S,12R,15S,18R,21S,24R)-6,18-bis(4-((5-cyclobutyl-1H-pyrazol-1-yl)methyl)benzyl)-3,9,15,21-tetraisobutyl-4,10,12,16,22,24-hexamethyl-1,7,13,19-tetraoxa-4,10,16,22-tetraazacyclotetracosan-2,5,8,11,14,17,20,23-octaone]	0.01 to 0.1	1 to 10	0.0001 to 0.001
C#Cc1cnn(Cc2ccc(C[C@H]3OC(=O)[C@H](CC(C)C)N(C)C(=O)[C@@H](C)OC(=O)[C@H](CC(C)C)N(C)C(=O)[C@@H](Cc4ccccc4)OC(=O)[C@H](CC(C)C)N(C)C(=O)[C@@H](C)OC(=O)[C@H](CC(C)C)N(C)C3=O)cc2)c1 [Example 2-51, (3S,6R,9S,12R,15S,18R,21S,24R)-6-benzyl-18-(4-((4-ethynyl-1H-pyrazol-1-yl)methyl)benzyl)-3,9,15,21-tetraisobutyl-4,10,12,16,22,24-hexamethyl-1,7,13,19-tetraoxa-4,10,16,22-tetraazacyclotetracosan-2,5,8,11,14,17,20,23-octaone]	0.001 to 0.01	1 to 10	0.0001 to 0.001
CCc1ccnn1Cc1ccc(C[C@H]2OC(=O)[C@H](CC(C)C)N(C)C(=O)[C@@H](C)OC(=O)[C@H](CC(C)C)N(C)C(=O)[C@@H](Cc3ccc(Cn4nccc4CC)cc3)OC(=O)[C@H](CC(C)C)N(C)C(=O)[C@@H](C)OC(=O)[C@H](CC(C)C)N(C)C2=O)cc1 [Example 1b-165, (3S,6R,9S,12R,15S,18R,21S,24R)-6,18-bis(4-((5-ethyl-1H-pyrazol-1-yl)methyl)benzyl)-3,9,15,21-tetraisobutyl-4,10,12,16,22,24-hexamethyl-1,7,13,19-tetraoxa-4,10,16,22-tetraazacyclotetracosan-2,5,8,11,14,17,20,23-octaone]	0.001 to 0.01	≤ 1	0.0001 to 0.001
CC(C)C[C@H]1C(=O)O[C@H](Cc2ccc(Cn3nccc3C3(C)CC3)cc2)C(=O)N(C)[C@@H](CC(C)C)C(=O)O[C@H](C)C(=O)N(C)[C@@H](CC(C)C)C(=O)O[C@H](Cc2ccc(Cn3nccc3C3(C)CC3)cc2)C(=O)N(C)[C@@H](CC(C)C)C(=O)O[C@H](C)C(=O)N1C [Example 1b-219, (3S,6R,9S,12R,15S,18R,21S,24R)-3,9,15,21-tetraisobutyl-4,6,10,16,18,22-hexamethyl-12,24-bis(4-((5-(1-methylcyclopropyl)-1H-pyrazol-1-yl)methyl)benzyl)-1,7,13,19-tetraoxa-4,10,16,22-tetraazacyclotetracosan-2,5,8,11,14,17,20,23-octaone]	0.01 to 0.1	≤ 1	0.0001 to 0.001
CC(C)C[C@H]1C(=O)O[C@H](Cc2ccc(Cn3nccc3C3CC3)cc2)C(=O)N(C)[C@@H](CC(C)C)C(=O)O[C@H](C)C(=O)N(C)[C@@H](CC(C)C)C(=O)O[C@H](Cc2ccccc2)C(=O)N(C)[C@@H](CC(C)C)C(=O)O[C@H](C)C(=O)N1C [Example 2-66, (3S,6R,9S,12R,15S,18R,21S,24R)-6-benzyl-18-(4-((5-cyclopropyl-1H-pyrazol-1-yl)methyl)benzyl)-3,9,15,21-tetraisobutyl-4,10,12,16,22,24-hexamethyl-1,7,13,19-tetraoxa-4,10,16,22-tetraazacyclotetracosan-2,5,8,11,14,17,20,23-octaone]	0.001 to 0.01	1 to 10	0.0001 to 0.001
